Laboratory results as given in patent US11945806B2, “Stabilization of amyloidogenic immunoglobulin light chains” (The Scripps Research Institute, priority 2019, dated 2024).

Biological target: WIL-FL (Homo sapiens, UniProt P01721)
Experiment: Unlabeled LC Protease Sensitivity Assay (proteinase K)
Assay type: biochemical
Details: small molecule 10 μM, WIL-FL 5 μM, proteinase K 50 nM, 2 hours at 37° C.
Description: Unlabeled LC Protease Sensitivity Assay. WIL-FL (5 μM) in phosphate-buffered saline (PBS, pH 7.4)+0.02% Pluronic F-127 was incubated with proteinase K (50 nM) with small molecule (10 μM) in 1% DMSO vehicle, or vehicle alone. After 2 hours at 37° C., reactions were quenched with 2 mM phenylmethyl sulfonyl fluoride in methanol and centrifuged at 14,000 rpm for 2 minutes. Remaining WIL-FL was quantified by injecting 10 μL of the supernatant into a Waters Acquity H-Class Bio-UPLC (ultra performance liquid chromatography) instrument equipped with a BEH200 analytical size-exclusion column (1.7 μm, 4.6×150 mm) under isocratic conditions (0.2 mL/min, PBS+1 mM EDTA, 2400 psi backpressure, 15 min), monitoring absorbance at 280 nm. Activity of each compound is given as fold protection from protease=(A_compound−A_vehicle)/(A_no_protease−A_vehicle), where each “A” corresponds to peak integration of the respective treatment.

Row | Compound | Protection (fold protection of LC from protease)
1 | CCN(CC)c1ccc2c(C)c(CCN3C(=O)NC4(CCN(C(=O)c5ccc[nH]c5=O)CC4)C3=O)c(=O)oc2c1 [Compound 178, 3-(2-(7-(diethylamino)-4-methyl-2-oxo-2H-chromen-3-yl)ethyl)-8-(2-oxo-1,2-dihydropyridine-3-carbonyl)-1,3,8-triazaspiro[4.5]decane-2,4-dione] | A (A < 0.3))
2 | C=CCNc1ccc2c(C)cc(=O)oc2c1 [Compound 240, 7-(allylamino)-4-methyl-2H-chromen-2-one] | A (A < 0.3))
3 | CCN(CC)c1ccc2c(C)c(CCN3C(=O)NC4(CCN(c5ncc(C(F)(F)F)cn5)CC4)C3=O)c(=O)oc2c1 [Compound 186, 3-(2-(7-(diethylamino)-4-methyl-2-oxo-2H-chromen-3-yl)ethyl)-8-(5-(trifluoromethyl)pyrimidin-2-yl)-1,3,8-triazaspiro[4.5]decane-2,4-dione] | A (A < 0.3))
4 | CCN(CC)c1ccc2cc(C#N)c(=N)oc2c1 [Compound 26, 7-(diethylamino)-2-imino-2H-chromene-3-carbonitrile] | A (A < 0.3))
5 | CCN(CC)c1ccc2c(C)c(CCC(=O)NC)c(=O)oc2c1 [Compound 66, 3-(7-(diethylamino)-4-methyl-2-oxo-2H-chromen-3-yl)-N-methylpropanamide] | A (A < 0.3))
6 | CCN(CC)c1ccc2c(C)c(CCNC(=O)NCc3cccc(CCC(=O)O)c3)c(=O)oc2c1 [Compound 307, 3-(3-((3-(2-(7-(diethylamino)-4-methyl-2-oxo-2H-chromen-3-yl)ethyl)ureido)methyl)phenyl)propanoic acid] | B (3 ≤ B < 0.6)
7 | Cc1cc(=O)oc2cc(NCc3ccoc3)ccc12 [Compound 29, 7-((furan-3-ylmethyl)amino)-4-methyl-2H-chromen-2-one] | A (A < 0.3))
8 | CCN(CC)c1ccc(NC(=O)CN2C(=O)CNC2=O)cc1 [Compound 150, N-(4-(diethylamino)phenyl)-2-(2,5-dioxoimidazolidin-1-yl)acetamide] | A (A < 0.3))
9 | CCN(CC)c1ccc2c(C)c(CCN3CC4(CCN(c5ncccn5)CC4)NC3=O)c(=O)oc2c1 [Compound 221, 3-(2-(7-(diethylamino)-4-methyl-2-oxo-2H-chromen-3-yl)ethyl)-8-(pyrimidin-2-yl)-1,3,8-triazaspiro[4.5]decan-2-one] | C (C ≥ 0.6)
10 | CCN(CC)c1ccc2c(C)c(CCC(=O)NCCc3ccccc3)c(=O)oc2c1 [Compound 64, 3-(7-(diethylamino)-4-methyl-2-oxo-2H-chromen-3-yl)-N-phenethylpropanamide] | A (A < 0.3))
11 | Cc1cc(=O)oc2cc(C(=O)NCCc3ccc(O)cc3)ccc12 [Compound 232, N-(4-hydroxyphenethyl)-4-methyl-2-oxo-2H-chromene-7-carboxamide] | A (A < 0.3))
12 | Cc1cc(=O)oc2cc(C(=O)Nc3ccc4ccccc4c3)ccc12 [Compound 227, 4-methyl-N-(naphthalen-2-yl)-2-oxo-2H-chromene-7-carboxamide] | A (A < 0.3))
13 | CCN(c1ccc2c(C)cc(=O)oc2c1)C(C)C [Compound 274, 7-(ethyl(isopropyl)amino)-4-methyl-2H-chromen-2-one] | A (A < 0.3))
14 | CCN(CC)c1ccc2c(C)c(CCOC(=O)NCc3ccc(Cl)nc3)c(=O)oc2c1 [Compound 97, 2-(7-(diethylamino)-4-methyl-2-oxo-2H-chromen-3-yl)ethyl ((6-chloropyridin-3-yl)methyl)carbamate] | A (A < 0.3))
15 | C=C(C)CN(C)c1ccc2c(C)cc(=O)oc2c1 [Compound 254, 4-methyl-7-(methyl(2-methylallyl)amino)-2H-chromen-2-one] | A (A < 0.3))
16 | CCN(CC)c1ccc2c(C)c(CCN3C(=O)NC4(CCN(C(=O)c5ncccn5)C4)C3=O)c(=O)oc2c1 (stereo not shown) [Compound 205, 3-(2-(7-(diethylamino)-4-methyl-2-oxo-2H-chromen-3-yl)ethyl)-7-(pyrimidine-2-carbonyl)-1,3,7-triazaspiro[4.4]nonane-2,4-dione] | B (3 ≤ B < 0.6)
17 | CCN(CC)c1ccc2c(C)c(CCOC(=O)NCc3cccc(-c4ccncc4)c3)c(=O)oc2c1 [Compound 162, 2-(7-(diethylamino)-4-methyl-2-oxo-2H-chromen-3-yl)ethyl (3-(pyridin-4-yl)benzyl)carbamate] | C (C ≥ 0.6)
18 | CCN(CC)c1ccc2c(C)c(CCOC(=O)NCc3ccn[nH]3)c(=O)oc2c1 [Compound 92, 2-(7-(diethylamino)-4-methyl-2-oxo-2H-chromen-3-yl)ethyl ((1H-pyrazol-5-yl)methyl)carbamate] | B (3 ≤ B < 0.6)
19 | C#CCNc1ccc2c(C)cc(=O)oc2c1 [Compound 249, 4-methyl-7-(prop-2-yn-1-ylamino)-2H-chromen-2-one] | A (A < 0.3))
20 | CCN(CC)c1ccc2c(C)c(CCOC(=O)NCc3cccc(-c4cccnc4)c3)c(=O)oc2c1 [Compound 161, 2-(7-(diethylamino)-4-methyl-2-oxo-2H-chromen-3-yl)ethyl (3-(pyridin-3-yl)benzyl)carbamate] | C (C ≥ 0.6)
21 | CCN(CC)c1ccc2c(C)c(CCN3C(=O)NC4(CCN(C(=O)c5ccncn5)CC4)C3=O)c(=O)oc2c1 [Compound 208, 3-(2-(7-(diethylamino)-4-methyl-2-oxo-2H-chromen-3-yl)ethyl)-8-(pyrimidine-4-carbonyl)-1,3,8-triazaspiro[4.5]decane-2,4-dione] | B (3 ≤ B < 0.6)

Further lines, results first:

Row | Protection (fold protection of LC from protease) | Compound
22 | A (A < 0.3)) | CCN(CC)c1ccc2c(C)c(CCNC(=O)OC(C)(C)C)c(=O)oc2c1 [Compound 69, Tert-butyl (2-(7-(diethylamino)-4-methyl-2-oxo-2H-chromen-3-yl)ethyl)carbamate]
23 | A (A < 0.3)) | CCN(CC)c1ccc2c(C)c(CCOC(=O)NCCc3ccccn3)c(=O)oc2c1 [Compound 82, 2-(7-(diethylamino)-4-methyl-2-oxo-2H-chromen-3-yl)ethyl (2-(pyridin-2-yl)ethyl)carbamate]
24 | C (C ≥ 0.6) | CCN(CC)c1ccc2c(C)c(CCOC(=O)NCc3cccc(-c4nc[nH]n4)c3)c(=O)oc2c1 [Compound 165, 2-(7-(diethylamino)-4-methyl-2-oxo-2H-chromen-3-yl)ethyl (3-(1H-1,2,4-triazol-5-yl)benzyl)carbamate]
25 | A (A < 0.3)) | Cc1cc(=O)oc2cc(N(CCCF)CCCF)ccc12 [Compound 250, 7-(bis(3-fluoropropyl)amino)-4-methyl-2H-chromen-2-one]
26 | A (A < 0.3)) | Cc1cc(=O)oc2cc(N3CCCCC3)ccc12 [Compound 48, 4-methyl-7-(piperidin-1-yl)-2H-chromen-2-one]
27 | A (A < 0.3)) | Cc1cc(=O)oc2cc(C(=O)Nc3ccc4scnc4c3)ccc12 [Compound 239, N-(benzo[d]thiazol-5-yl)-4-methyl-2-oxo-2H-chromene-7-carboxamide]
28 | B (3 ≤ B < 0.6) | CCN(CC)c1ccc2c(C)c(CCN3C(=O)NC4(CCN(C(=O)c5cncnc5)CC4)C3=O)c(=O)oc2c1 [Compound 210, 3-(2-(7-(diethylamino)-4-methyl-2-oxo-2H-chromen-3-yl)ethyl)-8-(pyrimidine-5-carbonyl)-1,3,8-triazaspiro[4.5]decane-2,4-dione]
29 | A (A < 0.3)) | C=CCCNc1ccc2c(C)cc(=O)oc2c1 [Compound 247, 7-(but-3-en-1-ylamino)-4-methyl-2H-chromen-2-one]
30 | C (C ≥ 0.6) | CCN(CC)c1ccc2c(C)c(CCN3C(=O)NC4(CCN(C(=O)c5ncc[nH]5)C4)C3=O)c(=O)oc2c1 (stereo not shown) [Compound 181, 3-(2-(7-(diethylamino)-4-methyl-2-oxo-2H-chromen-3-yl)ethyl)-7-(1H-imidazole-2-carbonyl)-1,3,7-triazaspiro[4.4]nonane-2,4-dione]
31 | A (A < 0.3)) | CCCN(CC)c1ccc2c(C)cc(=O)oc2c1 [Compound 275, 7-(ethyl(propyl)amino)-4-methyl-2H-chromen-2-one]
32 | B (3 ≤ B < 0.6) | CCN(CC)c1ccc2c(C)c(CCN3C(=O)NC4(CCN(C(=O)c5cncnc5)C4)C3=O)c(=O)oc2c1 (stereo not shown) [Compound 209, 3-(2-(7-(diethylamino)-4-methyl-2-oxo-2H-chromen-3-yl)ethyl)-7-(pyrimidine-5-carbonyl)-1,3,7-triazaspiro[4.4]nonane-2,4-dione]
33 | B (3 ≤ B < 0.6) | CCN(CC)c1ccc2c(C)c(CCNC(=O)NCCc3cnc[nH]3)c(=O)oc2c1 [Compound 281, 1-(2-(1H-imidazol-5-yl)ethyl)-3-(2-(7-(diethylamino)-4-methyl-2-oxo-2H-chromen-3-yl)ethyl)urea]
34 | A (A < 0.3)) | CCN(CC)c1ccc2c(C)c(CCN3C(=O)NC4(CCN(c5ccc(C(F)(F)F)cn5)CC4)C3=O)c(=O)oc2c1 [Compound 187, 3-(2-(7-(diethylamino)-4-methyl-2-oxo-2H-chromen-3-yl)ethyl)-8-(5-(trifluoromethyl)pyridin-2-yl)-1,3,8-triazaspiro[4.5]decane-2,4-dione]
